Reference: the supplement of paper PMC10307832

Columns and labels:
Assay in all cases: relative viability (nuclei count vs DMSO), 5 days (fraction); higher = more cells survive
Bemcentinib + Phenformin = compound: Nc1nc(Nc2ccc3c(c2)CC[C@@H](N2CCCC2)CC3)nn1-c1cc2c(nn1)-c1ccccc1CCC2 [Bemcentinib] + N=C(N)NC(=N)NCCc1ccccc1 [Phenformin] (partner 250 µM)
How it was run: (§1)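 Lung cancer cell lines, seeded in 1536-well plates, were treated the following day by pin tool with a single drug or with five library-drug doses (not always all listed) in √10 steps on top of a fixed anchor-drug dose. Cells were fixed and nuclei stained in one step after 5 days, and nuclei were counted. Relative viability is the nuclei count for treated wells divided by that for vehicle wells, reported as medians of duplicate plates.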

Bemcentinib + Pictilisib = compound: Nc1nc(Nc2ccc3c(c2)CC[C@@H](N2CCCC2)CC3)nn1-c1cc2c(nn1)-c1ccccc1CCC2 [Bemcentinib] + CS(=O)(=O)N1CCN(Cc2cc3nc(-c4cccc5[nH]ncc45)nc(N4CCOCC4)c3s2)CC1 [Pictilisib] (partner 1 µM)
How it was run: as §1

[1] = compound: CC1=CC=C(C=C1)C(=O)CN2C3=C(CCCC3)SC2=N [Pifithrin_alpha] + Cc1nc(NC(=O)N2CCC[C@H]2C(N)=O)sc1-c1ccnc(C(C)(C)C(F)(F)F)c1 [Alpelisib] (partner 2 µM)
How it was run: as §1

Axitinib + Decitabine = compound: CNC(=O)c1ccccc1Sc1ccc2c(/C=C/c3ccccn3)n[nH]c2c1 [Axitinib] + Nc1ncn([C@H]2C[C@H](O)[C@@H](CO)O2)c(=O)n1 [Decitabine] (partner 2 µM)
How it was run: as §1

Row | Cell Line | relative viability (Bemcentinib + Phenformin; first compound 0.04 µM) | relative viability (Bemcentinib + Phenformin; first compound 0.1265 µM) | relative viability (Bemcentinib + Phenformin; first compound 0.4 µM) | relative viability (Bemcentinib + Phenformin; first compound 1.265 µM) | relative viability (Bemcentinib + Phenformin; first compound 4 µM) | relative viability (Bemcentinib + Pictilisib; first compound 0.04 µM) | relative viability (Bemcentinib + Pictilisib; first compound 0.1265 µM) | relative viability (Bemcentinib + Pictilisib; first compound 0.4 µM) | relative viability (Bemcentinib + Pictilisib; first compound 1.265 µM) | relative viability (Bemcentinib + Pictilisib; first compound 4 µM) | relative viability ([1]; first compound 1 µM) | relative viability ([1]; first compound 3.162 µM) | relative viability ([1]; first compound 10 µM) | relative viability ([1]; first compound 31.62 µM) | relative viability ([1]; first compound 100 µM) | relative viability (Axitinib + Decitabine; first compound 0.005 µM) | relative viability (Axitinib + Decitabine; first compound 0.01581 µM) | relative viability (Axitinib + Decitabine; first compound 0.05 µM) | relative viability (Axitinib + Decitabine; first compound 0.1581 µM) | relative viability (Axitinib + Decitabine; first compound 0.5 µM)
1 | LCLC-103H | 0.366 | 0.255 | 0.332 | 0.289 | 0.35 | 0.588 | 0.632 | 0.692 | 0.604 | 0.616 | 0.971 | 0.992 | 1.1 | 0.931 | 0.939 | 0.738 | 0.719 | 0.738 | 0.801 | 0.797
2 | BEN | 0.242 | 0.289 | 0.269 | 0.255 | 0.295 | 0.551 | 0.6 | 0.631 | 0.564 | 0.591 | 1.01 | 1.19 | 1.14 | 0.965 | 1.22 | 0.795 | 0.758 | 0.771 | 0.782 | 0.635
3 | NCI-H1755 | 0.652 | 0.62 | 0.648 | 0.59 | 0.622 | 0.331 | 0.459 | 0.496 | 0.485 | 0.443 | 0.99 | 0.93 | 0.942 | 0.75 | 1.02 | 0.759 | 0.715 | 0.704 | 0.726 | 0.709
4 | LU99A | 0.806 | 0.856 | 0.835 | 0.801 | 0.827 | 0.362 | 0.356 | 0.329 | 0.346 | 0.357 | 0.503 | 0.576 | 0.543 | – | 0.646 | 0.719 | 0.987 | 0.761 | 0.905 | 0.857
5 | NCI-H1793 | 0.395 | 0.463 | 0.384 | – | 0.336 | 0.414 | 0.38 | 0.454 | 0.395 | 0.361 | 0.752 | 0.68 | 0.839 | 0.73 | 0.538 | 0.595 | 0.55 | 0.478 | 0.413 | 0.559
6 | NCI-H460 | 0.552 | 0.7 | 0.522 | 0.607 | 0.568 | 0.252 | 0.267 | 0.412 | 0.26 | 0.374 | 0.529 | 0.57 | 0.384 | – | 0.305 | 0.585 | 0.464 | 0.528 | 0.535 | 0.585
7 | SK-LU-1 | 0.521 | 0.633 | 0.485 | 0.548 | 0.6 | 0.557 | 0.572 | 0.619 | 0.587 | 0.679 | 0.828 | 1.19 | 1.13 | 0.766 | 1.16 | 0.64 | 0.726 | 0.618 | 0.582 | 0.598
8 | HARA | 0.41 | 0.541 | 0.539 | 0.434 | 0.498 | 0.407 | 0.423 | 0.338 | 0.392 | 0.371 | 0.757 | 0.794 | 0.856 | 0.638 | 0.519 | 0.575 | 0.396 | 0.484 | 0.548 | 0.581
9 | ABC-1 | 0.191 | 0.267 | 0.23 | 0.253 | 0.239 | 0.688 | 0.736 | 0.731 | 0.77 | 0.955 | 0.945 | 0.983 | 0.732 | 0.682 | 0.661 | 1.35 | – | 0.866 | 0.964 | 1.01
